Data from patent publication US20220162610A1, “NOVEL RNA TRANSCRIPT” (PTC Therapeutics, Inc., priority 2020, published 2022).

Assays:
[1] = Unbound brain partition coefficient (Kp,uu) from mouse PK studies; assay type: in vivo; details: FVB (WT littermates of the BACHD colony), brain and plasma (unbound), oral, 10 mg/kg, average over animals of multiple mouse PK studies
Method: Oral pharmacokinetics (PK) of compounds was evaluated in WT littermates from the BACHD colony (FVB background). Mice were treated with test compounds (10 mg/kg) by oral gavage in 0.5% hydroxypropylmethyl cellulose (HPMC) with 0.1% Tween 80. Blood was collected by terminal cardiac puncture at specified time points (3 mice per time point) and centrifuged to generate plasma. Brain tissue was collected at the time of blood collection and homogenized in water. Protein was precipitated from plasma and brain homogenates with acetonitrile, methanol mixture (5:1, v:v) containing an internal standard that is a close analog of the test compounds. The mixture was filtered through an EMD Millipore MultiScreen™ Solvinert Filter Plate (MSRLN04, Millipore, Burlington, Mass.). Calibration standards were prepared in the same matrix and processed with the testing samples. Filtrates were analysed using Acquity ultra performance liquid chromatography (UPLC) system (Waters Corporation) tandem with Xevo TQ-s Spectrometer (Waters Corporation). Samples were injected on to a Waters UPLC Acquity BEH C18 Column (2.1*50 mm, 1.7 μm) maintained at 50° C. The injection volume was 3 μL and the mobile phase flow rate was 0.45 mL/min. The mobile phase consisted of 2 solvents: A) 0.1% formic acid in water and B) 0.1% formic acid in acetonitrile. The initial mobile phase started with 5% solvent B for 0.4 min, which was changed to […] over 0.8 min with linear gradients and then maintained at 95% solvent B for another 0.4 min. The drug concentrations were acquired and processed with MassLynx 4.1 software. PK parameters were estimated using the non-compartment method within Phoenix® WinNonlin® Build 8.1 (Certara USA, Inc., Princeton, N.J.).
The unbound brain partition coefficient (Kp,uu) is defined as the ratio between unbound brain free drug concentration and unbound plasma concentration. It was calculated using the following equation:
Kp,uu=Cbrain×fu,b/(Cplasma*fu,p)
Cbrain and Cplasma represent the compound concentrations in brain and plasma, respectively. fu,b and fu,p are the unbound fraction of each testing article in brain and plasma, respectively. Both fu,b and fu,p were determined in vitro using Pierce Rapid Equilibrium Dialysis (RED) device at Absorption System LLC (Exton, Pa.). Kp,uu was calculated individually for each animal from multiple mouse PK studies and the average values are reported here.

[2] = biological target: T1, MDR1 (Homo sapiens, UniProt P08183); assay: MDCK-MDR1 efflux assay; assay type: in vitro ADME; details: 10 μM, MDCK-MDR1 and MDCK-WT monolayers, 1 hour
T1 construct: host or cells: MDCK (Madin-Darby Canine Kidney) cells expressing MDR1
T1 sequence (P08183 whole entry): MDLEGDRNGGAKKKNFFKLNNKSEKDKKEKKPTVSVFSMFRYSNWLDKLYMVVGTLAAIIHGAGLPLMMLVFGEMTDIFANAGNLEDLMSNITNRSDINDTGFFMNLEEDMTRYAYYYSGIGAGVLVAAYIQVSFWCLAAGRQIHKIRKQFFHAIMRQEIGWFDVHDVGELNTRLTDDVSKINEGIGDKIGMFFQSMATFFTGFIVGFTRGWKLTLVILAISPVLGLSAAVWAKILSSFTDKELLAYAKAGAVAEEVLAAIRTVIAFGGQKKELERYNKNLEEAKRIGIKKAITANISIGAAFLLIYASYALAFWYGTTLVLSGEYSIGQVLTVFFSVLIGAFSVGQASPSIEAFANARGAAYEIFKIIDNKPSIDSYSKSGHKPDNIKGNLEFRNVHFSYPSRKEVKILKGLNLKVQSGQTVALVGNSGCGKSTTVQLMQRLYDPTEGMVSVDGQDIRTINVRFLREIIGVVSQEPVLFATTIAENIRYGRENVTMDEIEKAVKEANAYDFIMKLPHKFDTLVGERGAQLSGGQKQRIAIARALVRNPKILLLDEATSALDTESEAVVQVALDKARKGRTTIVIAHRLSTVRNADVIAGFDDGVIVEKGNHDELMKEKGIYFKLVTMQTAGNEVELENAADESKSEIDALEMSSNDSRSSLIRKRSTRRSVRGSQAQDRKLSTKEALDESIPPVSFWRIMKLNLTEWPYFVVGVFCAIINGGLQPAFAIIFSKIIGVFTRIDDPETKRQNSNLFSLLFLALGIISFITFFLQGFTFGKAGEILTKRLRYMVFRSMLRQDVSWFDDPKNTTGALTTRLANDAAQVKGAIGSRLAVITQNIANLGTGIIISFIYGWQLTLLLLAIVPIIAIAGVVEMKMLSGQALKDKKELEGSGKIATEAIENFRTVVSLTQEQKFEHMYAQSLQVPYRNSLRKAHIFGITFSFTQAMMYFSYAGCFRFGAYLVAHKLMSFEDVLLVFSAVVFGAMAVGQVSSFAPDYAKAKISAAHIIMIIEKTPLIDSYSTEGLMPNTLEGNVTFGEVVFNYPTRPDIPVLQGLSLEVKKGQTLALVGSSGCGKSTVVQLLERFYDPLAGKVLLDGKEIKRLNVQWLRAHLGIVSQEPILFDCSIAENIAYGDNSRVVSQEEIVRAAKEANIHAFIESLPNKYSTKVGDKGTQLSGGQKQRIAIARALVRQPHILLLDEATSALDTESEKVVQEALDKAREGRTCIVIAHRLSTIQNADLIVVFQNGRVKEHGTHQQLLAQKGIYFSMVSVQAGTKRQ
Method: The MDR1 efflux assay was conducted at Absorption System LLC (Exton, Pa.). Briefly, MDCK-MDR1 and MDCK-WT cell monolayers were grown to confluence on collagen-coated, microporous membranes in 12-well assay plates (Thermofisher). Compound solutions (10 μM) in permeability assay buffer (Hanks' balanced salt solution (HBSS), 10 mM HEPES, 15 mM glucose; pH of 7.4) were placed in the donor chamber. The receiver chamber was filled with assay buffer plus 1% BSA. Cell monolayers were dosed on the apical side (A-to-B) or basolateral side (B-to-A) and incubated at 37° C. (5% CO2, 100% relative humidity). Sampling from the donor chambers was performed at 0 and 1 hour; and from the receiver chambers at 1 hour. Each determination was performed in duplicate. The flux of lucifer yellow was also measured post-experimentally for each monolayer to ensure no damage was inflicted to the cell monolayers during the flux period. All samples were assayed by LC-MS/MS using electrospray ionisation. The apparent permeability (Papp) and percent recovery was determined using the following equation: […]
dCr/dt represents the slope of the cumulative receiver concentration versus time in μM/s; Vr is the volume of the receiver compartment (cm3); Vd is the volume of the donor compartment in (cm3); A is the area of the insert (1.13 cm2 for 12-well); C0 is the average measured concentration of the donor chamber at time zero in μM; Net Efflux ratio (ER) is defined as […].

[3] = tested on: HTT pre-mRNA; assay: Ampliseq/RNAseq analysis of intron 49 pseudoexon inclusion and HTT expression in different cell types; assay type: cell-based, human; details: for inclusion of intron 49 pseudoexon: HD fibroblasts, SH-SY5Y, TK6, MRC-5 cells
[4] = tested on: human HTT protein; assay: Pharmacodynamic study in BACHD mice, HTT protein in tissues; assay type: in vivo
Method: Test mice were euthanised and brain, muscle (quadriceps), and blood samples were harvested 2 hours after the last dose on Day 20. Prior to analysis, crude total protein from brain and muscle tissue samples was prepared by sample lysis in MSD® assay buffer 1 (MSD®) with Complete™ Protease Inhibitor Cocktail added (Roche Diagnostics). Tissues were then homogenised using TissueLyser II (Qiagen) plus a 5 mm stainless steel bead. The lysate was clarified by centrifugation at 16,000×g for 20 minutes at 4° C. and the total protein concentration quantified with the Pierce™ BCA Protein Assay Kit (Thermo Scientific) according to the manufacturer's instructions. Whole blood was collected by cardiac puncture into EDTA collection tubes. An aliquot (100-200 μL) was added to 1.5 mL of eBioscience™ 1× Red Blood Cell Lysis Buffer (Thermo Fisher) and mixed well for 5 minutes before collecting the white blood cells (WBC) by centrifugation at 400×g. The supernatant was discarded, and the pellet of WBCs was frozen in liquid nitrogen and stored at −70° C. Brain and muscle sample lysates were analysed for hHTT and KRAS protein expression using the ECL protein assay (described previously); using the same method WBC samples were also analysed for hHTT expression but not KRAS.
Each tissue sample was tested in duplicate using the ECL protein assay and the average hHTT and KRAS readouts were calculated. The ratio of the mean hHTT signal to the mean KRAS signal (×1000) was determined for each test animal. The hHTT/KRAS ratio grand mean for the vehicle group of five test animals was calculated and the fold change relative to the vehicle grand mean was determined for each test animal in each group. Percent hHTT (% hHTT) lowering normalised to KRAS was determined for each test animal by subtracting the fold change from one and multiplying the difference by 100. Each experiment was performed twice yielding ten % hHTT lowering values for each treatment group. For each treatment group, the mean % hHTT lowering plus the standard error of the mean (SEM) was plotted as a bar graph. The % hHTT lowering in white blood cell samples was determined without KRAS using the grand hHTT vehicle mean instead of the grand hHTT/KRAS ratio vehicle mean.
BACHD: Pharmacodynamic (PD) evaluations were performed in BACHD mice aged 6-10 weeks. Compound or vehicle (HPMC/0.1% Tween 80) was administered to BACHD mice (5 female mice per group) once daily for 21 doses (QD×21) by oral gavage; dosing volumes were 10 mL/kg. Each animal was regularly observed for mortality or signs of pain, distress, or overt toxicity and findings were recorded. Body weights were recorded at the start and at least once a week during the course of the study. As described previously, tissue samples were obtained and prepared for ECL protein assay analysis from each animal as described previously.

Compound	Kp uu [1]	NET MDR1 ER [2]	inclusion of intron 49 pseudoexon [3]	HTT gene expression quantified using RNAseq (FPKM) ([3]; 100 nM, SHSY5Y cells (HTT-C2), TK6 cells (HTT-C3))	time for protein expression to return to control levels after treatment cessation ([4]; 10 mg/kg, brain)	time at which maximal reductions in HTT levels were achieved ([4]; 10 mg/kg, brain, time course 4-63 days)	lowering of HTT protein throughout the whole brain ([4]; 10 mg/kg, incl. striatum and cortex)	HTT reduction in blood cells, muscle, heart, liver and kidney ([4]; at doses required to achieve 50% HTT lowering in the brain)	HTT levels within brain tissue ([4]; daily oral administration, 3 or 10 mg/kg)	HTT protein within peripheral tissues ([4]; oral administration)	HTT protein within the brain and peripheral tissues ([4]; BACHD mice)
CC1(C)CC(Oc2ccc(-c3ccc(-c4ccnc(O)c4)cc3O)nn2)CC(C)(C)N1 [HTT-C1]	0.084	>62.7	induced the inclusion of an Intron 49 pseudoexon								
CC1(C)CC(Oc2ccc(-c3ccc(-c4cn[nH]c4)cc3O)nn2)CC(C)(C)N1 [HTT-C2]	0.179		induced the inclusion of an Intron 49 pseudoexon	reduced HTT gene expression	≤ 10 days	≤ 21 days	> 50%	> 90%	dose-dependent reduction of HTT levels within brain tissue	dose dependently lowered HTT protein within peripheral tissues	
CCN1CCC(c2cc(C)c3nc(-c4ccc5nn(C)cc5c4)cc(=O)n3c2)CC1 [HTT-D1]	0.242	11.8									
CCN1CCC(c2cc3c(F)cc(-c4cc(C)c5nc(C)cn5n4)cc3nn2)CC1 [HTT-D3]	0.472	7.10	induced the inclusion of an Intron 49 pseudoexon								dose dependent and more equitable lowering of HTT protein
